# According to US20120070511A1, “MITOCHONDRIAL INHIBITORS AND USES THEREOF” (priority 2009, published 2012):
# Columns and labels:
# Assay type in all cases: cell-based
# [1] = tested on: CHOP/GADD153 and cleaved caspase 3 in MM.1S, 8226, KMS-11; test: Western blot of CHOP/GADD153 and cleaved caspase 3 in 3 MM cell lines; settings: CCCP
# Method: . Induction of UPR-mediated apoptosis following treatment of 3 MM cell lines with four different mitochondrial inhibitors for various time points was assayed by western blot analysis of CHOP and cleaved caspase 3.
# (§1) Western blot analysis: Western blots were performed. Membranes were probed with monoclonal rabbit anti-GRP94, anti GRP-78, anti-PDI, anti-CHOP/GADD153, anti-cleaved caspase 3 (Cell Signaling, Danvers, Mass., USA) and monoclonal mouse anti-β-actin (Sigma, St. Louis, Mo., USA).
# [2] = tested on: MM cell lines (MM1.S, 8226, KMS-11, U266); test: Measurement of cytoplasmic calcium (indo-1 fluorescence ratio 400/500 nm); settings: MM cell lines
# Method: (§2) Measurement of cytoplasmic calcium: Cytoplasmic Ca^2+ concentration was estimated by using the cell permeant fluorochrome indo-1-AM (Invitrogen, Carlsbad, Calif.). When excited at 355 nm, the maximum emission of indo-1 shifts from 500 nm to 400 nm following its binding to free Ca^2+. Thus, the ratio of reading at 400 nm and 500 nm correlates with concentration of cytoplasmic Ca^2+. Experiments were performed in cells loaded with indo-1 by incubating them with 2.5 μM of this fluorochrome at 37° C. for 45 min. Cells were then centrifuged at 400 g for 5 min and resuspended in their growth medium followed by distribution of 100 μl of aliquots into 96 well optical bottom plates (Nalge Nunc, Int., Rochester, N.Y.) and fluorescence was measured by Spectra Max Gemini Plus (Molecular Devices, Sunnyvale, Calif.). The average of triplicates from untreated samples was used as control reading and increase in cytoplasmic Ca^2+ was calculated as percent increase from control samples.
# [3] = tested on: non-myeloma cell lines (NALM6, MDA-MB-435, 143B, 1420); test: as above; settings: non-myeloma cell lines (oligomycin: all cell lines)
# Method: as §2
# REH cells = test: Western blot after 24 h CCCP (UPR, AMPK pathway, caspase 3)
# Method: (§3) A) Reversal of CCCP induced toxicity by either 10 μM BAPTA-AM or 50 μM of Z-VAD was investigated using trypan blue exclusion assays. The bars represent the average of triplicate samples +SD. B) ATP levels were assayed following 6 h of treatment with indicated concentrations of CCCP. The bars represent the average of triplicate samples +SD. C) Induction of UPR, activation of AMPK pathway and cleavage of caspase 3 was analyzed by western blots following 24 h treatment with indicated concentrations of CCCP in MM.1S and REH cell lines. β-Actin was used as a loading control. D) The quantification of phosphorylated AMPK and total AMPK bands in the previous panel was done using a Bio-Rad gel reader which employs Quality I software. The bars represent the fold increase in the ratio of p-AMPK/AMPK in treated versus untreated samples from three independent experiments +SD.
# as §1
# MM.1S and REH cells = test: ATP levels after 6 h of CCCP treatment; settings: 6 h CCCP; REH versus MM.1S
# Method: as §3
# MM.1S and REH cell lines = test: Mitochondrial membrane potential (JC-1) after CCCP; settings: immediately after 10 μM CCCP
# Method: […]. A) ψm potential, B) mitochondrial Ca^2+ and C) cytoplasmic Ca^2+ levels were measured using the fluorochromes JC-1, X-rhod-1 and indo-1, respectively. After 10 min of initial baseline measurement, CCCP was added into each well to achieve a final concentration of 10 μM and changes in fluorescence intensity was assayed for up to 2 h. In the graphs the time point of CCCP addition is marked as ‘0’. The graph is an average of triplicate samples with +SD.
# Assaying mitochondrial function: Two parameters were assayed for mitochondrial function: Δψm and oxygen consumption. Δψm was estimated using […] (JC-1, Invitrogen, Carlsbad, Calif., USA). Oxygen consumption was measured in 3×10^6 cells using a Clark's electrode (Hansatech, Cambridge, UK).
compound,measurement,setting,value
N#CC(C#N)=NNc1cccc(Cl)c1 [CCCP],CHOP/GADD153 induction compared among the 3 MM cell lines,[1],more profound in MM.1S and 8226 as compared to KMS-11
same,caspase 3 cleavage compared among the 3 MM cell lines,[1],more rapidly in MM.1S and 8226 versus KMS-11
same,cytoplasmic Ca2+ after mitochondrial inhibitor,[2],immediate increase in cytoplasmic Ca^2+
same,effect on mitochondrial Ca2+ uptake,[2]; estimated from cytoplasmic Ca2+,equally inhibit mitochondrial Ca^2+ uptake
same,increase in cytoplasmic Ca2+ after mitochondrial inhibitor,[3],not seen in non-myeloma cell lines except for NALM6
same,CCCP concentration required for similar increase of CHOP/GADD153,"REH cells; 24 h, REH",at least 10 μM
same,AMPK phosphorylation at higher doses,REH cells; REH,continues to increase
same,cleaved caspase 3,"REH cells; REH, even at the 10 μM dose",no cleaved caspase 3 can be detected
same,AMPK phosphorylation,"REH cells; highest dose (10 μM) CCCP, REH compared to MM.1S",more phosphorylated
same,ATP levels,MM.1S and REH cells,"decreased more significantly in REH cells, as compared to MM.1S cells"
same,Δψm,MM.1S and REH cell lines,significantly reduced in both cell types
